# In patent publication US8933235B2, “Pyridinedione carboxamide inhibitors of endothelial lipase” (Bristol-Myers Squibb Company, priority 2011, dated 2015):
# Biological target: T1, endothelial lipase (EL) (Homo sapiens, UniProt Q9Y5X9)
# T1 construct: Conditioned media obtained from HT-1080 cells, which were transformed by RAGE technology (Athersys) to overexpress endogenous EL; endogenous in cells; conditioned medium used as the enzyme source
# T1 sequence (Q9Y5X9 21-500): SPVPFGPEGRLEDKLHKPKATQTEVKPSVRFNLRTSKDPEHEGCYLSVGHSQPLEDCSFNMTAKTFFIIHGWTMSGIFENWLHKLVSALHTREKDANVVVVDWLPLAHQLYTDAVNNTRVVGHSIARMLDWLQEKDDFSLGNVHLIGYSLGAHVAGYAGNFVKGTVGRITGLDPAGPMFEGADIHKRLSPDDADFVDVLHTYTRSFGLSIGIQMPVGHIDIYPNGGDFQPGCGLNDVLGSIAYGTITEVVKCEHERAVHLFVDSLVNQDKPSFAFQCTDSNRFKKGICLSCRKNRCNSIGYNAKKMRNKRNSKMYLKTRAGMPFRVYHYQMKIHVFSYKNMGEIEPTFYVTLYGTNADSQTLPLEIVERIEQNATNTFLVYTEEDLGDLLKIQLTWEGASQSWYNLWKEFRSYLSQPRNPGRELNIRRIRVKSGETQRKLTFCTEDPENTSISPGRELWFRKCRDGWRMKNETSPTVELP
# Test: Endothelial lipase (EL) enzymatic assay with fluorescent substrate A10070 in DMPG vesicles
# Type: biochemical
# Settings: conditioned media from HT-1080 cells overexpressing endogenous EL; 20 min preincubation at 37° C.; read-out: HLE_EL_CRC IC50
# Protocol: Endothelial lipase activity was measured using a fluorescent substrate, A10070, (Invitrogen, CA) doped into an artificial vesicle containing DMPG (Avanti Polar Lipids) as the excipient. Vesicles were prepared by combining 285 uL of 1 mM DMPG in a 1:1 mixture of MeOH and CHCl3 with 15 uL of 1 mM A10070 in a 1:1 mixture of MeOH and CHCl3. The mixture was dried under nitrogen and resuspended in 150 uL of 50 mM HEPES pH 8.0 buffer containing 100 mM NaCl and 0.2 mM EDTA. The sample was allowed to sit at rt for 15 min and then was sonicated 3×4 mins on ice with a Branson Sonicator using duty cycle 1. This preparation provides vesicles with a mole fraction of 0.05 for the FRET substrate.
# The enzymatic assay was measured using white, opaque 96-well half area plates. Each well contained 60 uL of assay buffer (50 mM HEPES pH 8.0, 50 mM NaCl and 1 mM CaCl2) and 2 ul of a DMSO solution containing compound of interest. Conditioned media obtained from HT-1080 cells, which were transformed by RAGE technology (Athersys) to overexpress endogenous EL, was added and the reaction was allowed to incubate for 20 min at 37° C. with gentle agitation. The reaction was started by the addition of 20 uL of a 1:4 dilution of vesicles. The final total reaction volume was 100 uL. The reaction rates were measured on a Gemini plate reader with an excitation wavelength of 488 nm and a emission of 530 nm. Readings were taken every 20 seconds for 10 min with agitation between each reading. The slope of the linear portion of the readout was used to calculate the rate of the reaction.
row,SMILES,IC50 [nM]
1,"COc1c(C(=O)NCCCc2ccc(Cl)c(Cl)c2)ccn(C)c1=O [Example 113, N-(3-(3,4-dichlorophenyl)propyl)-3-methoxy-1-methyl-2-oxo-1,2-dihydropyridine-4-carboxamide]",5820
2,"Cn1ccc(C(=O)NCCCOc2cccc(F)c2)c(O)c1=O [Example 142, N-(3-(3-fluorophenoxy)propyl)-3-hydroxy-1-methyl-2-oxo-1,2-dihydropyridine-4-carboxamide]",216
3,"Cn1ccc(C(=O)NCCc2ccc(C(F)(F)F)cc2)c(O)c1=O [Example 136, 3-hydroxy-1-methyl-2-oxo-N-(4-(trifluoromethyl)phenethyl)-1,2-dihydropyridine-4-carboxamide]",2200
4,"CC(C)C(CCc1ccc(Cl)c(Cl)c1)NC(=O)c1ccn(C)c(=O)c1O (single isomer, unassigned) [Example 114, N-(1-(3,4-dichlorophenyl)-4-methylpentan-3-yl)-3-hydroxy-1-methyl-2-oxo-1,2-dihydropyridine-4-carboxamide]",6860
5,"CC(CNC(=O)c1ccn(C)c(=O)c1O)Oc1ccc(F)cc1 (stereo not shown) [Example 137, N-(2-(4-fluorophenoxy)propyl)-3-hydroxy-1-methyl-2-oxo-1,2-dihydropyridine-4-carboxamide]",1660
6,"Cn1ccc(C(=O)NCCCOc2ccc(Cl)c(Cl)c2)c(O)c1=O [Example 194, N-(3-(3,4-dichlorophenoxy)propyl)-3-hydroxy-1-methyl-2-oxo-1,2-dihydropyridine-4-carboxamide]",210
7,"Cn1c(-c2cc(F)cc(C(F)(F)F)c2)cc(C(=O)NCCc2ccc(C(F)(F)F)cc2)c(O)c1=O [Example 60, 6-(3-fluoro-5-(trifluoromethyl)phenyl)-3-hydroxy-1-methyl-2-oxo-N-(4-(trifluoromethyl)phenethyl)-1,2-dihydropyridine-4-carboxamide]",198
8,"Cn1ccc(C(=O)NCCc2ccccc2Cl)c(O)c1=O [Example 127, N-(2-chlorophenethyl)-3-hydroxy-1-methyl-2-oxo-1,2-dihydropyridine-4-carboxamide]",8660
9,"CC(CCc1ccccc1)NC(=O)c1ccn(C)c(=O)c1O (stereo not shown) [Example 126, 3-hydroxy-1-methyl-2-oxo-N-(4-phenylbutan-2-yl)-1,2-dihydropyridine-4-carboxamide]",2460
10,"CC(C)CNc1c(C(=O)NCCCc2ccc(Cl)c(Cl)c2)ccn(C)c1=O [Example 188, N-(3-(3,4-dichlorophenyl)propyl)-3-(isobutylamino)-1-methyl-2-oxo-1,2-dihydropyridine-4-carboxamide]",200
11,"CC(C)OCCNc1c(C(=O)NCCCc2ccc(Cl)c(Cl)c2)ccn(C)c1=O [Example 189, N-(3-(3,4-dichlorophenyl)propyl)-3-(2-isopropoxyethylamino)-1-methyl-2-oxo-1,2-dihydropyridine-4-carboxamide]",210
12,"Cn1ccc(C(=O)NCc2ccc(C(F)(F)F)cc2)c(O)c1=O [Example 129, 3-hydroxy-1-methyl-2-oxo-N-(4-(trifluoromethyl)benzyl)-1,2-dihydropyridine-4-carboxamide]",3560
13,"COc1ccc(CCNC(=O)c2ccn(C)c(=O)c2O)cc1 [Example 128, 3-hydroxy-N-(4-methoxyphenethyl)-1-methyl-2-oxo-1,2-dihydropyridine-4-carboxamide]",6620
14,"Cn1c(-c2cccc(C(=O)O)c2)cc(C(=O)NCCCc2ccc(Cl)c(Cl)c2)c(O)c1=O [Example 45, 3-(4-(3-(3,4-dichlorophenyl)propylcarbamoyl)-5-hydroxy-1-methyl-6-oxo-1,6-dihydropyridin-2-yl)benzoic acid]",199
15,"COC(=O)c1cccc(OCCCNC(=O)c2ccn(C)c(=O)c2O)c1 [Example 198, methyl 3-(3-(3-hydroxy-1-methyl-2-oxo-1,2-dihydropyridine-4-carboxamido)propoxy)benzoate]",182
16,"Cn1ccc(C(=O)NC(CCc2ccc(Cl)c(Cl)c2)C2CC2)c(O)c1=O (single isomer, unassigned) [Example 118, N-(1-cyclopropyl-3-(3,4-dichlorophenyl)propyl)-3-hydroxy-1-methyl-2-oxo-1,2-dihydropyridine-4-carboxamide]",2700

# The next lines start with the values.
row,IC50 [nM],SMILES
1,< 10,"Cn1c(C(F)(F)F)cc(C(=O)NCCCOc2ccccc2Cl)c(O)c1=O [Example 88, N-(3-(2-chlorophenoxy)propyl)-3-hydroxy-1-methyl-2-oxo-6-(trifluoromethyl)-1,2-dihydropyridine-4-carboxamide]"
2,< 10,"Cn1c(C(F)(F)F)cc(C(=O)NCCCOc2ccccc2C(F)(F)F)c(O)c1=O [Example 89, 3-hydroxy-1-methyl-2-oxo-6-(trifluoromethyl)-N-(3-(2-(trifluoromethyl)phenoxy)propyl)-1,2-dihydropyridine-4-carboxamide]"
3,< 10,"COC(=O)c1cccc(OCCCNC(=O)c2cc(-c3cc(F)cc(C(F)(F)F)c3)n(C)c(=O)c2O)c1 [Example 71, methyl 3-(3-(6-(3-fluoro-5-(trifluoromethyl)phenyl)-3-hydroxy-1-methyl-2-oxo-1,2-dihydropyridine-4-carboxamido)propoxy)benzoate]"
4,< 10,"Cn1c(-c2cc(F)cc(C(F)(F)F)c2)cc(C(=O)NCCCc2ccc(Cl)c(Cl)c2)c(O)c1=O [Example 7, N-(3-(3,4-dichlorophenyl)propyl)-6-(3-fluoro-5-(trifluoromethyl)phenyl)-3-hydroxy-1-methyl-2-oxo-1,2-dihydropyridine-4-carboxamide]"
5,178,"COc1ccc(CCNC(=O)c2cc(-c3cc(F)cc(C(F)(F)F)c3)n(C)c(=O)c2O)cc1 [Example 51, 6-(3-fluoro-5-(trifluoromethyl)phenyl)-3-hydroxy-N-(4-methoxyphenethyl)-1-methyl-2-oxo-1,2-dihydropyridine-4-carboxamide]"
6,< 10,"Cn1c(-c2cc(F)cc(C(F)(F)F)c2)cc(C(=O)NCCCOc2ccc(Cl)c(Cl)c2)c(O)c1=O [Example 77, N-(3-(3,4-dichlorophenoxy)propyl)-6-(3-fluoro-5-(trifluoromethyl)phenyl)-3-hydroxy-1-methyl-2-oxo-1,2-dihydropyridine-4-carboxamide]"
7,167,"Cn1ccc(C(=O)NC(CCc2ccc(Cl)c(Cl)c2)c2ccccc2)c(O)c1=O (single isomer, unassigned) [Example 120, N-(3-(3,4-dichlorophenyl)-1-phenylpropyl)-3-hydroxy-1-methyl-2-oxo-1,2-dihydropyridine-4-carboxamide]"
8,172,"COc1ccc(CNc2c(C(=O)NCCCc3ccc(Cl)c(Cl)c3)ccn(C)c2=O)cc1 [Example 186, (3-(3,4-dichlorophenyl)propyl)-3-(4-methoxybenzylamino)-1-methyl-2-oxo-1,2-dihydropyridine-4-carboxamide]"
9,< 10,"Cn1c(-c2cc(F)cc(C(F)(F)F)c2)cc(C(=O)NCCCOc2ccccc2Cl)c(O)c1=O [Example 48, N-(3-(2-chlorophenoxy)propyl)-6-(3-fluoro-5-(trifluoromethyl)phenyl)-3-hydroxy-1-methyl-2-oxo-1,2-dihydropyridine-4-carboxamide]"
10,< 10,"Cn1c(-c2ccc(Cl)c(C(F)(F)F)c2)cc(C(=O)NCCCc2ccc(Cl)c(Cl)c2)c(O)c1=O [Example 8, 6-(4-chloro-3-(trifluoromethyl)phenyl)-N-(3-(3,4-dichlorophenyl)propyl)-3-hydroxy-1-methyl-2-oxo-1,2-dihydropyridine-4-carboxamide]"
11,< 10,"Cn1c(-c2cc(F)cc(F)c2)cc(C(=O)NCCCc2ccc(Cl)c(Cl)c2)c(O)c1=O [Example 19, N-(3-(3,4-dichlorophenyl)propyl)-6-(3,5-difluorophenyl)-3-hydroxy-1-methyl-2-oxo-1,2-dihydropyridine-4-carboxamide]"
12,< 10,"Cn1c(-c2cc(F)cc(C(F)(F)F)c2)cc(C(=O)NCCCOc2ccc(F)cc2)c(O)c1=O [Example 64, 6-(3-fluoro-5-(trifluoromethyl)phenyl)-N-(3-(4-fluorophenoxy)propyl)-3-hydroxy-1-methyl-2-oxo-1,2-dihydropyridine-4-carboxamide]"
